Assay results: patent US9526785B2, “Pharmaceuticals for oral delivery” (Enteris BioPharma, Inc., priority 2013, dated 2016)
Where “and” joins values, the source holds several entries; their conditions need not be identical. Equal entries are not always repeated. Entries after “also recorded” stand apart in the source; their conditions may differ. Where two headings read alike, the source gives them in different places.

Assay: Tigecycline plasma PK and % F after PO enteric-coated capsule in dogs
Assay type: in vivo, Beagle dogs
Settings: for bioavailability / AUC(0-t) / Cmax / Tmax / concentration at 0 min / concentration at 15 min / concentration at 30 min / concentration at 45 min: female, beagle, dog, plasma, po, 15 mg; for Tmax: read-out: Tmax (converted); for concentration at 0 min / concentration at 15 min / concentration at 30 min / concentration at 45 min: Tigecycline Plasma Concentration
Protocol: Adult beagle dogs weighing approximately 9 to 15 kg were used in the study. […] Room temperature was set to be maintained between approximately 20±5° C. Relative humidity was monitored but not controlled.
TEKLAD™ Certified Canine Diet was provided once daily in amounts (˜400 grams) appropriate for the size and age of the animals. Tap water was available ad libitum via automatic watering device or water bowls.
Oral dosing of enteric-coated capsules was accomplished by administering them to the back of the dog's mouth, followed by a chase of 5 mL water to ensure swallowing.
Water was provided ad libitum. […] Subsequently, each group of animals was dosed based on the protocol, i.e. either IV, or PO by capsule.
Minocycline (VWR international) was used as an internal standard. Sample processing/clean-up of plasma samples was carried out offline by protein precipitation with acidified acetonitrile using 0.5% trifluoroacetic acid (TFA).
The HPLC system consisted of Shimadzu SIL-HTc HPLC system equipped with dual Shimadzu LC-10ADvp isopumps, a Shimadzu CTO-10ASvp column temperature controller and a Shimadzu SPD-10Avp variable wavelength detector. […] Mobile phase A consisted of 23 mM phosphate buffer pH 2.5 with 4 mM 1-octanesulfonic acid, while mobile phase B consisting of 90% acetonitrile, 10% water, with 2 mM 1-octanesulfonic acid. […] The total runtime was 18 minutes per sample. The mobile phase flow rate was 1.2 mL/min. Detection was performed using the SPD-10Avp variable wavelength detector set at 350 nm, with a sensitivity of 0.001 aufs.
The samples were then centrifuged under refrigeration at 13 k rpm for 5 minutes. The supernatant was taken and the liquid removed to dryness under nitrogen in a turbovap. The dried extract was reconstituted in 60 μL of mobile phase A and the suspension was further centrifuged at 5 k rpm for 5 minutes to pellet any insoluble matter. The resulting supernatant was then injected onto the LC.
The unknown concentration in dog plasma samples was determined by interpolation of the peak area ratios of analyte:internal standard versus the ratio of their nominal concentrations into the regression line obtained from calibration standards spiked in pooled dog plasma. No regression weighting was used for the calculations. […] The calibration curve covered the range of 0.05 μg/mL to 5 μg/mL. […]
The capsules were enterically coated using a standard preclinical protocol to 10% weight gain. Two studies were conducted.

[1] = 15 min, PO 15 mg unformulated enteric-coated capsule, SC424, individual dogs
[2] = 30 min, PO 15 mg unformulated enteric-coated capsule, SC424, individual dogs
[3] = 45 min, PO 15 mg unformulated enteric-coated capsule, SC424, individual dogs

For `CN(C)c1cc(NC(=O)CNC(C)(C)C)c(O)c2c1C[C@H]1C[C@H]3[C@H](N(C)C)C(O)=C(C(N)=O)C(=O)[C@@]3(O)C(O)=C1C2=O` [Tigecycline], the “Tigecycline Plasma Concentration” value [1] was 0.00 ng/mL, the “Tigecycline Plasma Concentration” value [2] was 0.00 ng/mL and the “Tigecycline Plasma Concentration” value [3] was 0.00 ng/mL. For the same compound, the “Tigecycline Plasma Concentration” value (60 min, PO 15 mg unformulated enteric-coated capsule, SC424, individual dogs) was 0.00 ng/mL, the “Tigecycline Plasma Concentration” value (75 min, PO 15 mg unformulated enteric-coated capsule, SC424, individual dogs) was 0.00 ng/mL and the “Tigecycline Plasma Concentration” value (90 min, PO 15 mg unformulated enteric-coated capsule, SC424, individual dogs) was 0.00 ng/mL. For the same compound, the “Tigecycline Plasma Concentration” value (120 min, PO 15 mg unformulated enteric-coated capsule, SC424, individual dogs) was 0.00 ng/mL, the “Tigecycline Plasma Concentration” value (150 min, PO 15 mg unformulated enteric-coated capsule, SC424, individual dogs) was 0.00 ng/mL and the “% F” value (PO 15 mg enteric-coated capsule with 500 mg CA and 100 mg LLC, SC424, calculated from IV data of SC427, individual dogs) was 13.6% and 3.9% and 30.3% and 17.0% and 2.0% and 8.3% and 12.0% and 10.6%. For the same compound, the plasma exposure (PO 15 mg unformulated (microcrystalline cellulose filler) enteric-coated capsule (SC424)) was “No tigecycline exposure was observed; also recorded: did not result in observable plasma exposure”, the “% F” value (PO 30 mg enteric-coated capsule with 500 mg CA and 100 mg LLC, SC430, calculated from IV PK data of SC431, individual dogs) was 7.9% and 23.3% and 12.8% and 2.6% and the plasma exposure (PO 30 mg unformulated (microcrystalline cellulose filler) enteric-coated capsule (SC430)) was “No tigecycline exposure was observed; also recorded: did not result in observable plasma exposure”. The “% F” value (PO 45 mg enteric-coated capsule with 500 mg CA and 100 mg LLC, SC430, calculated from IV PK data of SC431, individual dogs) was 18.4% and 6.3% and 6.4% and 14.8% and 31.8%, the bioavailability (15 mg Formulated (500 mg CA, 100 mg LLC) enteric coated capsule, Study 1 (SC424), mean (% CV), read-out: % F) was 12.2% and the AUC(0-t) (15 mg Formulated (500 mg CA, 100 mg LLC) enteric coated capsule, Study 1 (SC424), mean (% CV), read-out: AUC(0-t)) was 133 ng·h/mL. For the same compound, the Cmax (15 mg Formulated (500 mg CA, 100 mg LLC) enteric coated capsule, Study 1 (SC424), mean (% CV), read-out: Cmax) was 75.5 ng/mL, the Tmax (15 mg Formulated (500 mg CA, 100 mg LLC) enteric coated capsule, Study 1 (SC424), mean (% CV)) was 1.85 h and the bioavailability (15 mg Unformulated enteric coated capsule, Study 1 (SC424), read-out: % F) was 0%. It also gave an AUC(0-t) (PO 15 mg ([…]) enteric-coated capsule with 500 mg CA and 100 mg LLC (SC424), read-out: AUC(0-t), mean) of 133 ng·h/mL, a Cmax (PO 15 mg ([…]) enteric-coated capsule with 500 mg CA and 100 mg LLC (SC424), read-out: Cmax, mean) of 75.5 ng/mL and a bioavailability (PO 15 mg ([…]) enteric-coated capsule with 500 mg CA and 100 mg LLC (SC424), read-out: absolute % F, mean) of 12.2%. It also gave a bioavailability (PO 15 mg enteric-coated capsule with 500 mg CA and 100 mg LLC (SC424), read-out: % F, range of individual dogs) of 2 to 30%, an AUC(0-t) (PO 15 mg enteric-coated capsule with 500 mg CA and 100 mg LLC ([…]), SC424, mean, read-out: AUC(0-t)) of 133 ng·h/mL and a Cmax (PO 15 mg enteric-coated capsule with 500 mg CA and 100 mg LLC ([…]), SC424, mean, read-out: Cmax) of 75.5 ng/mL. For the same compound, the Tmax (PO 15 mg enteric-coated capsule with 500 mg CA and 100 mg LLC ([…]), SC424, mean) was 1.85 h, the bioavailability (PO 15 mg enteric-coated capsule with 500 mg CA and 100 mg LLC, SC424, calculated from IV data of SC427, mean, read-out: % F) was 12.2% and the bioavailability (PO 15 mg unformulated enteric-coated capsule ([…]), SC424, individual dogs, read-out: % F) was 0%. For the same compound, the bioavailability (PO 15 mg unformulated enteric-coated capsule ([…]), SC424, mean, read-out: % F) was 0%, the bioavailability (Study 1 (SC424), 15 mg Formulated enteric coated capsule (500 mg citric acid, 100 mg LLC), oral, dogs, N=8, mean (% CV), based on that study's IV arm, read-out: % F) was 12.2% and the Tmax (Study 1 (SC424), 15 mg Formulated enteric coated capsule (500 mg citric acid, 100 mg LLC), oral, dogs, N=8, mean (% CV)) was 1.85 h. The AUC(0-t) (Study 1 (SC424), 15 mg Formulated enteric coated capsule (500 mg citric acid, 100 mg LLC), oral, dogs, N=8, mean (% CV), sampling 4 h, read-out: AUC(0-t)) was 133 ng·h/mL, the Cmax (Study 1 (SC424), 15 mg Formulated enteric coated capsule (500 mg citric acid, 100 mg LLC), oral, dogs, N=8, mean (% CV), sampling 4 h, read-out: Cmax) was 75.5 ng/mL and the bioavailability (Study 1 (SC424), 15 mg Unformulated enteric coated capsule (microcrystalline cellulose filler), oral, dogs, N=8, based on that study's IV arm, read-out: % F) was 0%. The concentration at 0 min (PO 15 mg enteric-coated capsule with 500 mg CA and 100 mg LLC, SC424, individual dogs) was 0 ng/mL, the concentration at 0 min (PO 15 mg enteric-coated capsule with 500 mg CA and 100 mg LLC, SC424, mean) was 0 ng/mL and the concentration at 15 min (15 min, PO 15 mg enteric-coated capsule with 500 mg CA and 100 mg LLC, SC424, individual dogs) was 0 ng/mL. For the same compound, the concentration at 15 min (15 min, PO 15 mg enteric-coated capsule with 500 mg CA and 100 mg LLC, SC424, mean) was 0 ng/mL, the concentration at 15 min [1] was 0 ng/mL and the concentration at 15 min (15 min, PO 15 mg unformulated enteric-coated capsule, SC424, mean) was 0 ng/mL. The concentration at 30 min (30 min, PO 15 mg enteric-coated capsule with 500 mg CA and 100 mg LLC, SC424, individual dogs) was 0 ng/mL, the concentration at 30 min (30 min, PO 15 mg enteric-coated capsule with 500 mg CA and 100 mg LLC, SC424, mean) was 0 ng/mL and the concentration at 30 min [2] was 0 ng/mL. The concentration at 30 min (30 min, PO 15 mg unformulated enteric-coated capsule, SC424, mean) was 0 ng/mL, the concentration at 45 min (45 min, PO 15 mg enteric-coated capsule with 500 mg CA and 100 mg LLC, SC424, mean) was 8.45 ng/mL and the concentration at 45 min [3] was 0 ng/mL. For the same compound, the concentration at 45 min (45 min, PO 15 mg unformulated enteric-coated capsule, SC424, mean) was 0 ng/mL.
